Tested on: ViroSTEM (mesenchymal stem cells into which measles virus has been introduced)
Experiment: Viability of ViroSTEM cold-stored in 30% autologous serum-containing physiological saline treated with aspirin
Assay type: cell-based, human
Experimental: While ViroSTEM, which is mesenchymal stem cells into which measles virus has been introduced, was cold-stored in physiological saline containing aspirin and 30% autologous serum for 5 days, it was treated with aspirin at a concentration of 10 μg/ml to 100 μg/ml.
The period of time during which ViroSTEM cold-stored in physiological saline containing 50 μg/ml aspirin and 30% autologous serum was maintained as described above increased to 80 hours, indicating the stability of the virus in ViroSTEM cold-stored for 80 hours. After cold storage of ViroSTEM for 80 hours, the stem cells were cultured and then observed under a fluorescence microscope.

## CC(=O)Oc1ccccc1C(=O)O [aspirin]
Homo sapiens, Mesenchymal stem cells, 72 h, aspirin 50 μg/ml, cold storage 3 days in physiological saline containing 30% autologous serum, without aspirin about 28.6%, read-out: cell viability of measles virus-infected stem cell therapeutic agent
  viability at 50 µg/mL: ≥ 88%
Tested 10 μg/ml to 100 μg/ml in vehicle containing autologous serum
  most effective concentration of aspirin: 50 µg/mL

From patent publication US20230016479A1, “METHOD FOR PREPARING MESENCHYMAL STEM CELLS HAVING IMPROVED VIABILITY THROUGH ANTI-CANCER VIRUS INTRODUCTION” (priority 2019, published 2023)
